Entries after “also recorded” stand apart in the source; their conditions may differ.
Experiments:
[1] = system: ADPKD cyst-lining epithelial cells; assay: MTT assay, proliferation of ADPKD cyst-lining epithelial cells; type: cell-based, human
Experimental: Gamendazole (GMZ) was studied to determine the effect on cAMP and EGF treated ADPKD cyst-lining epithelial cells. The cells were treated with 100 uM cAMP or 25 ng/ml EGF to stimulate cell proliferation. Increasing concentrations of gamendazole were added to the medium of the cells. After 72 hours of treatment, MTT assays were performed.
For the MTT assay shown in FIG. 10A, ADPKD cyst-lining epithelial cells were plated at a density of 4×10^3 cells per well in a 96-well cell culture plate (n=6). Cells were serum-starved for 24 hours and treated either with 100 μM cAMP or 25 ng/ml EGF to stimulate cell proliferation. For the MTT assay shown in FIG. 10B, ADPKD cells were plated at a density of 2×10^3 cells per well in medium containing 1% FBS. After 24 hours, medium was changed to include 5% FBS. Increasing concentrations of GMZ were added to the medium for the cells of both FIGS. 10A and 10B to determine the effect of GMZ on cell proliferation. After 72 hours of treatment, MTT assays were performed by adding dye solution to the cells and stopping the reaction four hours later. Optical densities were measured using a spectrophotometer. In each group, results were expressed as a percentage of the control group (not treated with GMZ).

pcy mouse = assay: In vivo treatment of the pcy mouse; conditions: 1 mg/kg IP, three times weekly from 5-20 weeks of age, after 12 weeks of treatment
Source text: The Pkd1 gene is orthologous to the gene involved in ˜85% of human ADPKD cases. […] Biol Reprod. 78(6):1139-52 (2008). If so, it could be reducing the levels of the Hsp90 client proteins, CFTR and NKCC1, both important for cyst-filling chloride secretion. Evidence is shown here that NKCC1 protein levels were reduced by GMZ treatment of metanephric kidneys in organ culture. Evidence was also shown for decreased PCNA levels, which is consistent with a general decrease in cell proliferation in these kidneys in organ culture, due probably to Hsp90 inhibition. The efficacy of GMZ on inhibition of cyst growth in vivo is currently being tested in the pcy mouse, a mouse model of nephronophthisis-3 (NPHP3) which has a slowly progressive renal cystic disease. […] Accordingly, gamendazole inhibits cell proliferation and cAMP-stimulated cyst-like expansion (in metanephric organ cultures). The mechanisms may involve: a direct and rapid inhibition of forskolin-stimulated CFTR channel activity; inhibition of Hsp90 chaperone function leading to long-term reduction of NKCC1 protein levels; or reduction of PKD proliferation pathway components. Thus, GMZ appears to be a potent inhibitor of these two important processes involved in PKD pathogenesis.

ADPKD cells = assay: Phalloidin staining of the actin cytoskeleton; type: cell-based, human; conditions: increasing concentrations
Experimental: To determine if gamendazole treatment alters actin cytoskeleton dynamics, ADPKD cells were stained with phalloidin and examined by fluorescence microscopy. […] Briefly, ADPKD cells or M-1 cortical collecting duct cells were plated in a 4-well chamber slide in 5% FBS-containing medium. After 24 hours, the cells were treated with increasing concentrations of GMZ. Cells were fixed using 4% paraformaldehyde and permeabilized with 0.2% Triton-X 100. Cells were then incubated for 20 min with TRITC-conjugated phalloidin, washed with PBS and mounted with DAPI-containing mounting medium. Images were captured at 10× (FIG. 13A) or 60× (FIG. 13B), using the same exposure settings for treated and untreated cells. […] Blue (internal staining) indicates DAPI-stained nuclei.

HSP90 = target: T1, HSP90 (Mus musculus, UniProt P11499); assay: Affinity chromatography of cell lysate with biotinylated RC-MC-110, drug specific elution; type: binding; conditions: TM4 sertoli cell (mouse) and ID8 cell lysates, avidin-sepharose column
T1 construct: Wash four 150 mm plates of TM4 cells (sertoli cells) or ID-8 cells (ovarian cancer) once with PBS; endogenous in cells; host or cells: TM4 Sertoli cells (mouse) and ID8 ovarian cancer cells, cell lysate
T1 sequence (P11499 whole entry): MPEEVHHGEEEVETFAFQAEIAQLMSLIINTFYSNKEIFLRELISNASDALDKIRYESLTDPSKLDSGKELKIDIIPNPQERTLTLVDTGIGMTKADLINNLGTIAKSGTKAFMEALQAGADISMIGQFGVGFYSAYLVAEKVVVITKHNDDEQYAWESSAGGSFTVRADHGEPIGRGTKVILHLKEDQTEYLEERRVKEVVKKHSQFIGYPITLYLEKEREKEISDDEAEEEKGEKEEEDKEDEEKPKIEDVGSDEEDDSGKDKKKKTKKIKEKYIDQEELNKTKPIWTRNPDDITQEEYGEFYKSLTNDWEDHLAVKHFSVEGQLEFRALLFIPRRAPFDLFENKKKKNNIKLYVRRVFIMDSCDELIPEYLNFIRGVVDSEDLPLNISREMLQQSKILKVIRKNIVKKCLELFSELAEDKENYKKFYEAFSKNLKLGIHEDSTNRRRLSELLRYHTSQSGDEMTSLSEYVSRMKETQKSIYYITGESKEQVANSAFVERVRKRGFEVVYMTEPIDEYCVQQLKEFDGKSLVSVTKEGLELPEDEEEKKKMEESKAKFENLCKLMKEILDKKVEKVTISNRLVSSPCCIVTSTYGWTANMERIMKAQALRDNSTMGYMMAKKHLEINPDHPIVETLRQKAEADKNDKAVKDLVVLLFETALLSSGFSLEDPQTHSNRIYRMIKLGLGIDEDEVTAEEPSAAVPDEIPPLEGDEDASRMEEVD
Experimental: To analyze the binding of the compounds of the present invention, the following procedure is used.
2. Wash four 150 mm plates of TM4 cells (sertoli cells) or ID-8 cells (ovarian cancer) once with PBS (20 mM concentration pH 7.5). Add enough volume to trypsinize cells. Aspirate and spin cells for 10 minutes at 4° C. at 250×g. Add enough Lysis buffer to the cells.
5. Remove the cell lysate and apply the sample into a 2 ml avidin-sepharose (tetramer form) column (pre-equilibrated with 50 mM Tris-HCl/0.001% NP-40, pH 7.4) to remove native biotinylated compounds.
6. Take 2.7 ml of pre-cleared cell lysate and incubate the sample with RC-MC-110.
Tube 1: 2.7 ml of pre-cleared lysate plus 150 μl of 1.2 mg/ml biotinylated RC-MC-110+150 μl of DMSO (maintaining the same amount of DMSO in both tubes).
Tube 2: 2.7 ml of pre-cleared lysate plus 150 μl of 1.2 mg/ml of biotinylated RC-MC-110 (RC-MC-150, see structure below), and add 150 μl of 12 mg/ml RC-MC-110 stock. Incubate the sample overnight at […] on a rocking platform (or gentle stirring) with gentle agitation.
7. Load samples on an avidin-sepharose column pre-equilibrated with buffer (50 mM Tris-HCl pH 7.4, 0.1% NP-40=TD buffer). Wash column until background is reached.
8. Wash column with 2.5 ml of 0.6 mg/ml of RC-MC-110 in TD buffer (stock 12 mg/ml) until peak elutes (if any) and stable background. Pool fractions.

SMILES	EGF-induced proliferation of ADPKD cells (MTT) ([1]; 25 ng/ml EGF, 1 uM to 25 uM GMZ for 72 h, dose-dependent)	cell proliferation at 10 μM ([1]; 10 μM)	cAMP-induced proliferation of ADPKD cells (MTT) ([1]; 100 μM cAMP, 1 uM to 25 uM GMZ for 72 h, dose-dependent)	Cell proliferation of ADPKD cells with increasing concentration (MTT, FIGS. 10A and 10B) ([1]; cAMP, EGF or 5% FBS medium, 72 hours)	Tolerability in the pcy mouse (pcy mouse)	Cell morphology, actin cytoskeleton (ADPKD cells)	Binding of HSP90 (HSP90)
O=C(O)CCc1nn(Cc2ccc(Cl)cc2Cl)c2cc(C(F)(F)F)ccc12 [GMZ, 3-[1-(2,4-dichlorobenzyl)-6-trifluoromethyl-1H-indazol-3-yl]-propionic acid]	significantly inhibited	no effect on cell proliferation	significantly inhibited	more effectively inhibited cell proliferation as the concentration was increased	the treated mice appear to be tolerating GMZ	smaller, without leading edges and with less filamentous actin	–
O=C(O)/C=C/c1nn(Cc2ccc(Cl)cc2Cl)c2cc(C(F)(F)F)ccc12 [RC-MC-110, trans 3-[1-(2,4-dichlorobenzyl)-6-trifluoromethyl-1H-indazol-3-yl]-acrylic acid]	–	–	–	–	–	–	bind heat shock 90 proteins; also recorded: drug specific elution of Hsp90

Reference: US8362031B2, “Lonidamine analogues and treatment of polycystic kidney disease” (University of Kansas, priority 2004, dated 2013)
